The NIST ThermoML archive (doi:10.1021/je100228t)

Details: for surface tension liquid-gas: Maximal bubble pressure; for mass density: 101.33 kPa, Liquid

CCn1cc[n+](C)c1.N#C[B-](C#N)(C#N)C#N [1-ethyl-3-methylimidazolium tetracyanoborate]
Details | mass density [kg/m3] | surface tension liquid-gas [mN/m]
283.15 K | 1048.37 | 49.4
288.15 K | 1044.37 | 48.9
293.15 K | 1040.38 | 48.2
298.15 K | 1036.41 | 47.8
303.15 K | 1032.46 | 47.6
308.15 K | 1028.55 | 47.1
313.15 K | 1024.66 | 46.8
318.15 K | 1020.78 | 46.4
323.15 K | 1016.95 | 46.2
328.15 K | 1013.11 | 45.5
333.15 K | 1009.32 | 45
338.15 K | 1005.54 | 44.8
